What was measured:
T. cruzi TryR = T. cruzi TryR (Trypanosoma cruzi, UniProt P28593); assay: TryR inhibition, high-throughput microplate assay; assay type: biochemical
T. brucei TryR = T. brucei TryR (Trypanosoma brucei brucei, UniProt P39051); assay: TryR inhibition, high-throughput microplate assay; assay type: biochemical
Chain of T. brucei TryR (P39051 whole entry): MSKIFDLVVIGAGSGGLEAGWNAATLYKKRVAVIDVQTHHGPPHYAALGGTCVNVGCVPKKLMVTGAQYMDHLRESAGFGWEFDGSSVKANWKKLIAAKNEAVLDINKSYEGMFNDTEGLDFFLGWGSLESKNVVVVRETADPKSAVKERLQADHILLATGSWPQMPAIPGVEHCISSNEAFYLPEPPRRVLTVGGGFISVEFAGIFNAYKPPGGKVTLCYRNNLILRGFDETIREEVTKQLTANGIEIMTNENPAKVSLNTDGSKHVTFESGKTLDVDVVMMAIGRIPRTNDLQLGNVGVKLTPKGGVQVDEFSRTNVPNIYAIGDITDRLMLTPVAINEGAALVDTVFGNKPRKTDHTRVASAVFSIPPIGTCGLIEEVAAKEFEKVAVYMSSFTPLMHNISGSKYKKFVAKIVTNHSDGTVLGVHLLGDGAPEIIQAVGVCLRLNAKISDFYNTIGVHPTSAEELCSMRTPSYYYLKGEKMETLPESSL

Chain of T. cruzi TryR (P28593 whole entry): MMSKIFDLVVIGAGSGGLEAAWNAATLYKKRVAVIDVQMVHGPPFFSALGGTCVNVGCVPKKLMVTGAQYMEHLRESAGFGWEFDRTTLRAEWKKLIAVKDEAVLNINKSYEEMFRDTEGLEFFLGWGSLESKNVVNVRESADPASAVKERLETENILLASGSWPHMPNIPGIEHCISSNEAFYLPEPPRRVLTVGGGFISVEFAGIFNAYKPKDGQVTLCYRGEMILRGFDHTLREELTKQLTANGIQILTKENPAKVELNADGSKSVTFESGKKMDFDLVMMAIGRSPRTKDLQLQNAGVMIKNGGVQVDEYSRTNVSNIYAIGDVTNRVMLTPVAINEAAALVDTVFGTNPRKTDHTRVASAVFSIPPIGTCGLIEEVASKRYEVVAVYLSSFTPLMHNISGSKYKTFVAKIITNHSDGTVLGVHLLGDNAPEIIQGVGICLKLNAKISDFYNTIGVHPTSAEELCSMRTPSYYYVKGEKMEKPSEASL

Structure (SMILES)	inhibitory activity against TryR (in words) (T. cruzi TryR)	inhibitory activity against TryR (in words) (T. brucei TryR)
O=C(CN1C(=O)C2CC=CCC2C1=O)Nc1ccccc1Sc1ccc(Cl)cc1 (stereo not shown) [Compound 12]	neither 12 nor 16 displayed significant inhibitory activity	neither 12 nor 16 displayed significant inhibitory activity
O=C(CN1C(=O)NC2(CCCCCC2)C1=O)Nc1ccccc1Sc1ccccc1 [Compound 16]	neither 12 nor 16 displayed significant inhibitory activity	neither 12 nor 16 displayed significant inhibitory activity

Reference: paper PMC2659691 (Journal of Medicinal Chemistry, 2009)
